Measured values from article PMC8958511, “Development of Sulfamoylated 4-(1-Phenyl-1H-1,2,3-triazol-4-yl)phenol Derivatives as Potent Steroid Sulfatase Inhibitors for Efficient Treatment of Breast Cancer” (Journal of Medicinal Chemistry, 2022).
Where two headings read alike, the source gives them in different places. Each block holds one compound with its values, some of them ahead of it.

Assays:
[1] = biological target: T1, STS isolated from the human placenta (Homo sapiens, UniProt P08842); assay: radioisotope enzymatic assay with STS isolated from human placenta and [3H]E1S; assay type: biochemical; details: 0.5 μM inhibitor concentration, substrate [3H]E1S, 3 nM, triplicate; for remaining activity at 0.5 µM: read-out: residual STS activity [%]
T1 construct: radioisotope enzymatic assay using STS isolated from the human placenta; from tissue; host or cells: human placenta
T1 sequence (P08842 22-583): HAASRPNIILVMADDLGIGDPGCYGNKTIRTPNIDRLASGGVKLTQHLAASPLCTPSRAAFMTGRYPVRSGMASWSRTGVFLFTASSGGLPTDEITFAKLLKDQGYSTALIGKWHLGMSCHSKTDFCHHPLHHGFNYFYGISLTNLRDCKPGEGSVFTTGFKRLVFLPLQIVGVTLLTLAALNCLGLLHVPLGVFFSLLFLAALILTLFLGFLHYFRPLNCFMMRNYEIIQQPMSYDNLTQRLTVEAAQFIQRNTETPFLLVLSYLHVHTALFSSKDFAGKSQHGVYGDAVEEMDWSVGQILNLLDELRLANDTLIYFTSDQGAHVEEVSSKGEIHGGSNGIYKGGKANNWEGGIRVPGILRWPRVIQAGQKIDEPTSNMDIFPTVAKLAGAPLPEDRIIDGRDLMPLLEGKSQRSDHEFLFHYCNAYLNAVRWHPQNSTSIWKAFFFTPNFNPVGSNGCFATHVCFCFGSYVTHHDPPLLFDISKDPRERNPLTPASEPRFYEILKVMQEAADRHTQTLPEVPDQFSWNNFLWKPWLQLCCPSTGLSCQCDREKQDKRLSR
Method: The inhibitory potency of the synthesized compounds was examined in two ways, including an enzymatic assay and the radioisotope cellular test. The enzymatic assay was performed using the STS enzyme isolated from human placenta and using radiolabeled [^3H]E1S as a substrate.
The total volume of the reaction mixture was 100 μL. […] After incubation, the reaction mixture (90 μL) was collected from each well, and the product formed by STS hydrolysis was extracted with toluene (0.5 mL). STS activity was measured using a MicroBeta radioluminometer (PerkinElmer). Enzymatic assays were carried out in triplicate.

STS in MCF-7 cells = biological target: T2, STS in MCF-7 cells (Homo sapiens, UniProt P08842); assay: radioisotope cellular assay with [3H]E1S in MCF-7 cells; assay type: cell-based; details: for remaining activity at 0.1 µM / remaining activity at 0.01 µM / remaining activity at 0.001 µM: MCF7, 20 h; for remaining activity at 0.1 µM: read-out: residual STS activity [%] 100 nM; for remaining activity at 0.01 µM: read-out: residual STS activity [%] 10 nM; for remaining activity at 0.001 µM: read-out: residual STS activity [%] 1 nM
T2 construct: The radioisotope cellular assay was performed using the MCF-7 cell line; endogenous in cells; host or cells: MCF-7
T2 sequence (P08842 22-583): T1 sequence (P08842 22-583)
Method: All compounds were initially tested for their in cell inhibitory action at a 100 nM concentration.
The inhibitory potency of the synthesized compounds was examined in two ways, including an enzymatic assay and the radioisotope cellular test. […] The radioisotope cellular assay was performed using the MCF-7 cell line in the presence of radiolabeled [^3H]E1S.
The evaluation of the inhibitory effect of each compound with breast cancer cells was performed using a previously described method (27) with some modifications. MCF-7 cells were maintained in Dulbecco’s modified Eagle medium supplemented with 10% fetal bovine serum and cultured in the above medium until 80% confluence. […] After incubation, the medium (0.45 mL) was collected from each well, and the product formed by STS hydrolysis was extracted with toluene (4 mL). STS activity was measured using a MicroBeta radioluminometer (PerkinElmer). Assays with MCF-7 cells were carried out in triplicate.

[2] = blood morphology, blood biochemistry and organ weights of mice with 67NR tumor
Method: At the end of the study, the autopsy of the animals was performed: blood was collected for further analyses of the morphology (Table S2, Supporting Information) and biochemistry (Table S3 and Figure S6, Supporting Information) and for the determination of the plasma estradiol level using the ELISA method.
Mice were injected orthotopically (in the mammary gland fat pad) with 67NR mouse mammary tumor cells derived from in vitro culture (1.5 × 10^5 cells/0.05 mL Hanks fluid/mouse). The growth of tumors has been observed. […] Animals were observed during the next 17 days and euthanized. During observation, body weight and tumor growth were monitored three times a week. The volume of the tumors was calculated according to the following formula: TV = a^2·b/2 [mm^3], (where: a—width and b—length of the tumor). Blood, tumor tissue, and liver were harvested during autopsy for further analyses. Blood aliquots (about 500 μL) were collected in EDTA containing vials for morphology analysis (Mythic 18 analyzer, Orphee), and then, the plasma was collected (centrifuged at 2500g for 15 min at 4 °C within 1 h after collection) for biochemical parameter analysis (Cobas c111, Roche).

[3] = assay type: in vivo; details: Table S1, MTD study, 50 mg/kg
Method: The mice were thus weighed, and their general health was observed. […] At the end of the study, the mice were sacrificed by dislocation of the cervical vertebrae, and the internal organs were examined macroscopically.
The mice were weighed, and their general health was observed. […] At the end of the MTD study, the autopsy was performed, and the internal organs (liver, kidney, and spleen) were weighed and macroscopically assessed.

[4] = system: 67NR mouse mammary tumor cells; assay: antitumor activity in 67NR orthotopic mouse breast carcinoma model; assay type: in vivo, BALB/c mice; details: 50 mg/kg b.w. per os
Method: The tumor volume (TV) and body weight were measured three times a week. Results for individual groups are reported in Figure S5, Supporting Information. Based on TV data, the tumor growth inhibition (TGI) was calculated for groups that received compounds and compared to that of the control group. […] The body weight of the treated animals was monitored during the study, and the body weight change (BWC) index was calculated (Figure 4). […] Body weight loss was observed between D2 and D11 and reached 4.5% at most.
The growth of tumors has been observed.

[5] = MCF-7 cells, 100 nM inhibitor, substrate [3H]E1S, 3 nM, triplicate
[6] = MCF-7 cells, 10 nM inhibitor, substrate [3H]E1S, 3 nM, triplicate
[7] = Table S2, mice with 67NR tumor, 50 mg/kg
[8] = Table S3, plasma, mice with 67NR tumor, 50 mg/kg per os, N=9
[9] = MCF-7 cells, 1 nM inhibitor, substrate [3H]E1S, 3 nM, triplicate

remaining activity at 0.5 µM [1]: 52.5 ± 2.62%
remaining activity at 0.1 µM (STS in MCF-7 cells; [5]): 10.2 ± 0.61%
SMILES: Cc1cc(C)cc(-n2cc(-c3ccc(OS(N)(=O)=O)cc3)nn2)c1 [4f, 4-(1-(3,5-Dimethylphenyl)-1H-1,2,3-triazol-4-yl)phenyl Sulfamate]

remaining activity at 0.01 µM (STS in MCF-7 cells; [6]): 48.2 ± 3.37%
SMILES: NS(=O)(=O)Oc1ccc(-c2cn(-c3ccc(F)cc3C(F)(F)F)nn2)cc1 [5h]

melting point: 213 to 216 °C (dec.)
residual STS activity [%] [1]: 11.78 ± 0.59%
remaining activity at 0.5 µM [1]: 11.8%
remaining activity at 0.1 µM (STS in MCF-7 cells; [5]): 18.7%
SMILES: NS(=O)(=O)Oc1ccc(-c2cn(-c3cc(I)cc(I)c3)nn2)cc1 [4m, 4-(1-(3,5-Diiodophenyl)-1H-1,2,3-triazol-4-yl)phenyl Sulfamate]

remaining activity at 0.1 µM (STS in MCF-7 cells; [5]): 15.5 ± 0.93%
SMILES: NS(=O)(=O)Oc1ccc(-c2cn(-c3ccccc3OC(F)(F)F)nn2)cc1 [5k]

SMILES: NS(=O)(=O)Oc1ccc(-c2cn(-c3ccc(F)c(F)c3F)nn2)cc1 [5e]
HCT [2, 7]: 34,6±1,6%
HGB [2, 7]: 13,4±0,6 g/dL
MCH [2, 7]: 18,2±0,4 pg
MCHC [2, 7]: 38,6±0,5 g/dL
MCV [2, 7]: 47±1,2 fL
MPV [2, 7]: 4,9±0,1 fL
PCT [2, 7]: 0,280±0,04%
PDW [2, 7]: 25,6±3,8 fL
RBC [2, 7]: 7,4±0,4 x106/uL
RDW [2, 7]: 19,2±1,2%
WBC [2, 7]: 6,1±2,1 x103/uL
ALT [2, 8]: 31,1±10,7 U/L
AST [2, 8]: 97,4±24,9 U/L
creatinine [2, 8]: 5,33±1,21 umol/L
urea [2, 8]: 7,65±0,54 mmol/L
GRAN [3]: 11,1±1,9%
HCT [3]: 42,3±1,3%
HGB [3]: 15,7±0,5 g/dL
LIMF [3]: 85,6±2,6%
MCH [3]: 17,1±0,2 pg
MCHC [3]: 37,2±0,7 g/dL
MCV [3]: 46±0,5 fL
MON [3]: 3,3±1%
PLT [3]: 511±30 10x3/uL
RBC [3]: 9,2±0,4 10x6/uL
RDW [3]: 17,6±0,7%
WBC [3]: 4,0±0,4 10x3/uL
remaining activity at 0.001 µM (STS in MCF-7 cells): 38.9%
remaining activity at 0.01 µM (STS in MCF-7 cells): 24.2 ± 1.45%
remaining activity at 0.1 µM (STS in MCF-7 cells): 1 ± 0.04%
IC50 (STS in MCF-7 cells; MCF-7 cells, substrate [3H]E1S, 3 nM): 2.95 ± 0.13 nM
body weight of treated tumor-bearing mice (observation) [4]: An increase in body weight was observed
tumor growth inhibition (TGI) ([4]; 5 days a week, 67NR tumor, N = 9, vs control group): did not show any significant effect
mice responded to the treatment ([4]; nine mice/group): 6 mice poorly responded to the treatment
mice with much larger tumor than the mean control volume ([4]; nine mice/group): 2 mice
mice with tumor volume reduced by approx. 50% compared to the TV control ([4]; nine mice/group): 1 mice

remaining activity at 0.1 µM (STS in MCF-7 cells; [5]): 3 ± 0.14%
SMILES: NS(=O)(=O)Oc1ccc(-c2cn(-c3ccc(F)c(F)c3)nn2)cc1 [5f]

melting point: 210 to 212 °C (dec.)
remaining activity at 0.5 µM [1]: 43.4 ± 2.17%
remaining activity at 0.1 µM (STS in MCF-7 cells; [5]): 6.8 ± 0.24%
SMILES: COc1cccc(-n2cc(-c3ccc(OS(N)(=O)=O)cc3)nn2)c1 [4g, 4-(1-(3-Methoxyphenyl)-1H-1,2,3-triazol-4-yl)phenyl Sulfamate]

melting point: 212 to 213 °C (dec.)
remaining activity at 0.5 µM [1]: 24.1 ± 1.2%
remaining activity at 0.001 µM (STS in MCF-7 cells; [9]): 79.4 ± 4.76%
remaining activity at 0.01 µM (STS in MCF-7 cells; [6]): 39.9 ± 2.19%
remaining activity at 0.1 µM (STS in MCF-7 cells; [5]): 2.1 ± 0.07%
SMILES: NS(=O)(=O)Oc1ccc(-c2cn(-c3cccc(Br)c3)nn2)cc1 [4c, 4-(1-(3-Bromophenyl)-1H-1,2,3-triazol-4-yl)phenyl Sulfamate]

melting point: 225 to 226 °C (dec.)
remaining activity at 0.5 µM [1]: 28.9 ± 1.44%
remaining activity at 0.1 µM (STS in MCF-7 cells; [5]): 5.9 ± 0.32%
SMILES: NS(=O)(=O)Oc1ccc(-c2cn(-c3cccc([N+](=O)[O-])c3)nn2)cc1 [4k, 4-(1-(3-Nitrophenyl)-1H-1,2,3-triazol-4-yl)phenyl Sulfamate]

remaining activity at 0.001 µM (STS in MCF-7 cells; [9]): 71.8 ± 4.67%
remaining activity at 0.01 µM (STS in MCF-7 cells; [6]): 9.5 ± 0.48%
remaining activity at 0.1 µM (STS in MCF-7 cells; [5]): 1%
residual STS activity [%] 100 nM (STS in MCF-7 cells; [5]): 1.0%
SMILES: NS(=O)(=O)Oc1ccc(-c2cn(-c3ccc(OC(F)(F)F)cc3)nn2)cc1 [5i]

remaining activity at 0.1 µM (STS in MCF-7 cells; [5]): < 5%
SMILES: NS(=O)(=O)Oc1ccc(-c2cn(-c3ccc(C(F)(F)F)cc3)nn2)cc1 [5j]

melting point: 225 to 227 °C (dec.)
remaining activity at 0.5 µM [1]: 55.1 ± 2.76%
remaining activity at 0.1 µM (STS in MCF-7 cells; [5]): 34.3 ± 1.88%
SMILES: COc1cc(OC)cc(-n2cc(-c3ccc(OS(N)(=O)=O)cc3)nn2)c1 [4h, 4-(1-(3,5-Dimethoxyphenyl)-1H-1,2,3-triazol-4-yl)phenyl Sulfamate]

remaining activity at 0.01 µM (STS in MCF-7 cells; [6]): 59.9 ± 3.29%
SMILES: NS(=O)(=O)Oc1ccc(-c2cn(-c3cccc(C(F)(F)F)c3)nn2)cc1 [5m]

remaining activity at 0.01 µM (STS in MCF-7 cells; [6]): 60.2 ± 2.7%
remaining activity at 0.1 µM (STS in MCF-7 cells; [5]): 1.5 ± 0.05%
SMILES: NS(=O)(=O)Oc1ccc(-c2cn(-c3ccc(F)cc3)nn2)cc1 [5a]

SMILES: Cc1cc(=O)oc2cc(OS(N)(=O)=O)ccc12 [COUMATE, reference compound]
remaining activity at 0.1 µM (STS in MCF-7 cells): 51.8%

melting point: 228 to 229 °C (dec.)
remaining activity at 0.5 µM [1]: 28.9 ± 1.44%
remaining activity at 0.1 µM (STS in MCF-7 cells; [5]): 8.3 ± 0.4%
SMILES: NS(=O)(=O)Oc1ccc(-c2cn(-c3cc(Br)cc(Br)c3)nn2)cc1 [4l, 4-(1-(3,5-Dibromophenyl)-1H-1,2,3-triazol-4-yl)phenyl Sulfamate]

remaining activity at 0.1 µM (STS in MCF-7 cells; [5]): 5.5 ± 0.3%
SMILES: NS(=O)(=O)Oc1ccc(-c2cn(-c3ccccc3C(F)(F)F)nn2)cc1 [5c]

melting point: 212 to 213 °C (dec.)
remaining activity at 0.5 µM [1]: 34.2 ± 1.71%
remaining activity at 0.1 µM (STS in MCF-7 cells; [5]): 3.1 ± 0.12%
SMILES: Cc1cccc(-n2cc(-c3ccc(OS(N)(=O)=O)cc3)nn2)c1 [4e, 4-(1-(3-Methylphenyl)-1H-1,2,3-triazol-4-yl)phenyl Sulfamate]

melting point: 202 to 204 °C (dec.)
remaining activity at 0.5 µM [1]: 18.1 ± 0.9%
remaining activity at 0.01 µM (STS in MCF-7 cells; [6]): 73.4%
remaining activity at 0.1 µM (STS in MCF-7 cells; [5]): 2.4 ± 0.12%
SMILES: CC(C)c1cccc(-n2cc(-c3ccc(OS(N)(=O)=O)cc3)nn2)c1 [4j, 4-(1-(3-Isopropylphenyl)-1H-1,2,3-triazol-4-yl)phenyl Sulfamate]

melting point: 228 to 229 °C (dec.)
residual STS activity [%] [1]: 13.23 ± 0.66%
remaining activity at 0.5 µM [1]: 13.2%
remaining activity at 0.001 µM (STS in MCF-7 cells; [9]): 67.5 ± 3.71%
remaining activity at 0.01 µM (STS in MCF-7 cells; [6]): 31.8 ± 1.59%
remaining activity at 0.1 µM (STS in MCF-7 cells; [5]): 2 ± 0.11%
SMILES: NS(=O)(=O)Oc1ccc(-c2cn(-c3cccc(I)c3)nn2)cc1 [4d, 4-(1-(3-Iodophenyl)-1H-1,2,3-triazol-4-yl)phenyl Sulfamate]

remaining activity at 0.01 µM (STS in MCF-7 cells; [6]): 46.6 ± 1.63%
remaining activity at 0.1 µM (STS in MCF-7 cells; [5]): 1.5 ± 0.05%
SMILES: NS(=O)(=O)Oc1ccc(-c2cn(-c3ccccc3)nn2)cc1 [5b]

remaining activity at 0.1 µM (STS in MCF-7 cells; [5]): 14.7 ± 0.88%
SMILES: NS(=O)(=O)Oc1ccc(-c2cn(-c3cc(C(F)(F)F)cc(C(F)(F)F)c3)nn2)cc1 [5d]

melting point: 223 to 225 °C (dec.)
remaining activity at 0.5 µM [1]: 14.5 ± 0.73%
remaining activity at 0.1 µM (STS in MCF-7 cells; [5]): 2.6 ± 0.08%
SMILES: CCc1cccc(-n2cc(-c3ccc(OS(N)(=O)=O)cc3)nn2)c1 [4i, 4-(1-(3-Ethylphenyl)-1H-1,2,3-triazol-4-yl)phenyl Sulfamate]
